pEC50: −log10 of the molar value.

The results in this text go back to patent publication US8987471B2, “Substituted dihydropyrazoles as sphingosine receptor modulators” (Allergan, Inc., priority 2013, dated 2015).

The assay concerns the target T1, human S1P1 receptor (Homo sapiens, UniProt P21453).
T1 construct: expressed in transfected cells; membranes used
As to the kind of experiment: GTP γ35S binding assay for S1P1 activity. Type of assay: biochemical. The conditions noted are these: membranes of cells stably expressing the S1P1 receptor, test concentrations 0.08 to 5,000 nM. As for the experimental part: Compounds of the invention were tested for S1P1 activity using the GTP γ^35S binding assay. These compounds may be assessed for their ability to activate or block activation of the human S1P1 receptor in cells stably expressing the S1P1 receptor.
GTP γ^355 binding was measured in the medium containing (mM) HEPES 25, pH 7.4, MgCl2 10, NaCl 100, dithiothreitol 0.5, digitonin 0.003%, 0.2 nM GTP γ^355, and 5 μg membrane protein in a volume of 150 μl. Test compounds were included in the concentration range from 0.08 to 5,000 nM unless indicated otherwise. Membranes were incubated with 100 μM 5′adenylylimidodiphosphate for 30 min, and subsequently with 10 μM GDP for 10 min on ice. Drug solutions and membrane were mixed, and then reactions were initiated by adding GTP γ^355 and continued for 30 min at 25° C. Reaction mixtures were filtered over Whatman GF/B filters under vacuum, and washed three times with 3 mL of ice-cold buffer (HEPES 25, pH 7.4, MgCl2 10 and NaCl 100). Filters were dried and mixed with scintillant, and counted for ^35S activity using a β-counter. Agonist-induced GTP γ^35S binding was obtained by subtracting that in the absence of agonist. Binding data were analyzed using a non-linear regression method. In case of antagonist assay, the reaction mixture contained 10 nM S1P in the presence of test antagonist at concentrations ranging from 0.08 to 5000 nM.
For orientation: GTPγS is a poorly hydrolysed GTP analogue; its binding reports G protein activation.

T1 sequence (P21453 whole entry): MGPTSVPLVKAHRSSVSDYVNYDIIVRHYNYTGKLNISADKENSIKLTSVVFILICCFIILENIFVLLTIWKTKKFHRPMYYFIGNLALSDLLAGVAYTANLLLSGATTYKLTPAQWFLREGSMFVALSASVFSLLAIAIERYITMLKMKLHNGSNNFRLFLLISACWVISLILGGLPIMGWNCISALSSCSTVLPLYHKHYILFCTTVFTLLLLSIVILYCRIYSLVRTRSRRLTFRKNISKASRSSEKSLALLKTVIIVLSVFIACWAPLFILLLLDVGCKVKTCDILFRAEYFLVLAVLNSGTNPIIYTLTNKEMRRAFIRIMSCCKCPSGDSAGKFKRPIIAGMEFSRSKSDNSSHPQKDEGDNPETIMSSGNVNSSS

Usually pEC50 stands for the EC50 on a negative log10 scale, so that one unit is a factor of ten. Low readings indicate a high EC50, high ones a low EC50. With `CCCN1N=C(COc2ccc(CNCCCP(=O)(O)O)cc2C)CC1c1ccccc1` (stereo not shown) [Compound 1, [3-({3-Methyl-4-[(5-phenyl-1-propyl-4,5-dihydro-1H-pyrazol-3-yl)methoxy]benzyl}amino)propyl]phosphonic acid], the negative logarithm of the EC50 (pEC50) is 7.24.
